According to patent publication US20230062119A1, “USE OF BIOMARKERS IN IDENTIFYING PATIENTS THAT WILL BE RESPONSIVE TO TREATMENT WITH A PRMT5 INHIBITOR” (Merck Sharp & Dohme LLC, priority 2019, published 2023):
Structures can show the parent of a compound that is named as a salt.

Each molecule was assayed against T1, Full-length (FL)-PRMT5-MEP50 enzyme complex (Homo sapiens, UniProt O14744) (assay: PRMT5-MEP50 Enzyme Methylation Assay). Conditions: one EC50: 4 parameters single site sigmoidal model; EC50 1: first value of 7 parameters biphasic model; 1.0 nM PRMT5-MEP50, 75 nM biotinylated peptide, 15 μM SAM; read-out: Enzyme Methylation Assay (EC50 or EC50 1).
T1 construct: Full-length (FL)-PRMT5-MEP50 enzyme complex (recombinant proteins from baculovirus-transfected Sf21 cells: FL-PRMT5; MW=73837 kDa and FL-MEP50; MW=38614); made in house; host or cells: baculovirus-transfected Sf21 insect cells
T1 sequence (O14744 whole entry): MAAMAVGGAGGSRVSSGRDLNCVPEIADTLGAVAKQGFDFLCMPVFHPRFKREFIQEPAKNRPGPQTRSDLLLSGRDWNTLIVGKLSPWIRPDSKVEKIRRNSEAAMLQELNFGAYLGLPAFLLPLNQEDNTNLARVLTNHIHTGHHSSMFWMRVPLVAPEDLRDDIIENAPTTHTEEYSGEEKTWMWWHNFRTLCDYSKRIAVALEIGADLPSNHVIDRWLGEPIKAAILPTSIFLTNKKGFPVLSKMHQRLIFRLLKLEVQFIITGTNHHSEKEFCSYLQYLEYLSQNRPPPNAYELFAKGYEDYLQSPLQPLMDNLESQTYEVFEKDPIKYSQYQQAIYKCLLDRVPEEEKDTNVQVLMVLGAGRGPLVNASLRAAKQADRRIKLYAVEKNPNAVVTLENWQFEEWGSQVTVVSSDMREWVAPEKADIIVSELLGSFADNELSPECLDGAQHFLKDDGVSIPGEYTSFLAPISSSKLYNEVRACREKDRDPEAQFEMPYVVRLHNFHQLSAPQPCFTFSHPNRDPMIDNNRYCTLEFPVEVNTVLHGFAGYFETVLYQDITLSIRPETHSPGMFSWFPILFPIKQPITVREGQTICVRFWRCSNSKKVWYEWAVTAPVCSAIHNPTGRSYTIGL
T1 sequence (Q9BQA1 whole entry partner): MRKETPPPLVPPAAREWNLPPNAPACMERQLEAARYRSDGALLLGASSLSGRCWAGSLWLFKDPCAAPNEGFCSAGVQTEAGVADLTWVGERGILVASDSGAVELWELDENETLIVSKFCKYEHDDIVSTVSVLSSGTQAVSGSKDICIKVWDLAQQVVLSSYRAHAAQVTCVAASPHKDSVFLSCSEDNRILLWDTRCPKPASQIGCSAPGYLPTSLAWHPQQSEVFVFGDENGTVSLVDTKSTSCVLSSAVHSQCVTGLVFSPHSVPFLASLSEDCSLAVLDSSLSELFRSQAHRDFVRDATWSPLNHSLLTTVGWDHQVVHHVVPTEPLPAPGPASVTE
Type: biochemical
Protocol: PRMT5-MEP50 biochemical assay is a direct measurement of the methylation activity of the enzyme complex on a short peptide substrate derived from the N-terminus of H4 histone. Methylation experiment is performed with recombinant PRMT5-MEP50 protein complex. The assessment of inhibitory effect of small molecules is measured by the effectiveness of the compounds to inhibit this reaction (EC50).
In this assay, the potency (EC50) of each compound was determined from a twenty-point (1:2 serial dilution; top compound concentration of 100000 nM) titration curve using the following outlined procedure. To each well of a white ProxiPlus 384 well-plate, 100 nL of compound (1% DMSO in final assay volume of 10 μL) was dispensed, followed by the addition of 8 μL of 1× assay buffer (50 mM Bicine pH 8.0, 1 mM DTT, 0.004% Tween20, 0.01% BSA) containing 1.25 nM of Full-length (FL)-PRMT5-MEP50 enzyme complex (recombinant proteins from baculovirus-transfected Sf21 cells: FL-PRMT5; MW=[…] and FL-MEP50; MW=38614) and 1 μL of 150 μM S-(5′-Adenosyl)-L-Methionine Chloride (SAM). Plates were sealed and placed in a 37° C. humidified chamber for a 60 minutes pre-incubation with compound. Subsequently, each reaction was initiated by the addition of 1 μL 1× assay buffer containing 750 nM biotinylated H4R3(Mel) peptide. The final reaction in each well of 10 μL consists of 1.0 nM PRMT5-MEP50, 75 nM biotinylated-peptide, and 15 μM SAM. Methylation reactions proceeded for 150 minutes in a sealed plate at 37° C. Reactions were immediately quenched by the addition of 1 μL of 5% formic acid. Plates were then frozen and shipped to SAMDI™ Tech Inc. to determine the percent conversion from H4R3(Mel) to H4R3(Me2). Dose-response curves were generated by plotting percent effect (% product conversion; Y-axis) vs. Log 10 compound concentrations (X-axis). EC50 values were determined by non-linear regression according to models for either sigmoidal (4 parameters) or biphasic (7 parameters) dose-response curves.
For `Nc1nc2c(F)c(C[C@@H]3CC[C@@]4(O)[C@@H]3O[C@@H](n3ccc5c(N)ncnc53)[C@@H]4O)ccc2cc1F` [Example 20, (2R,3R,3aS,6S,6aR)-6-[(2-amino-3,8-difluoroquinolin-7-yl)methyl]-2-(4-amino-7H-pyrrolo[2,3-d]pyrimidin-7-yl)hexahydro-3aH-cyclopenta[b]furan-3,3a-diol], the EC50 was 0.5 nM. With `Nc1nc2cc(C[C@@H]3CC[C@@]4(O)[C@@H]3O[C@@H](n3ccc5c(N)ncnc53)[C@@H]4O)cc(F)c2cc1Cl` [Example 21, (2R,3R,3aS,6S,6aR)-6-[(2-amino-3-chloro-5-fluoroquinolin-7-yl)methyl]-2-(4-amino-7H-pyrrolo[2,3-d]pyrimidin-7-yl)hexahydro-3aH-cyclopenta[b]furan-3,3a-diol] the EC50 was 0.8 nM. Molecule `Cc1ncnc2c1ccn2[C@@H]1O[C@@H]2[C@H](Cc3ccc4cc(Cl)c(N)nc4c3F)CC[C@]2(O)[C@H]1O` [Example 22, (2R,3R,3aS,6S,6aR)-6-[(2-amino-3-chloro-8-fluoroquinolin-7-yl)methyl]-2-(4-methyl-7H-pyrrolo[2,3-d]pyrimidin-7-yl)hexahydro-3aH-cyclopenta[b]furan-3,3a-diol] has an EC50 of 1 nM. `Cc1ncnc2c1ccn2[C@@H]1O[C@@H]2[C@H](Cc3ccc4cc(C(F)F)c(N)nc4c3)CC[C@]2(O)[C@H]1O` [Example 23, (2R,3R,3aS,6S,6aR)-6-((2-amino-3-(difluoromethyl)quinolin-7-yl)methyl)-2-(4-methyl-7H-pyrrolo[2,3-d]pyrimidin-7-yl)hexahydro-3aH-cyclopenta[b]furan-3,3a-diol] showed an EC50 of 0.4 nM. `Nc1nc2cc(C[C@@H]3CC[C@@]4(O)[C@@H]3O[C@@H](n3cc(F)c5c(N)ncnc53)[C@@H]4O)cc(F)c2cc1F` [Example 24, (2R,3R,3aS,6S,6aR)-6-((2-amino-3,5-difluoroquinolin-7-yl)methyl)-2-(4-amino-5-fluoro-7H-pyrrolo[2,3-d]pyrimidin-7-yl)hexahydro-3aH-cyclopenta[b]furan-3,3a-diol] was tested, and the EC50 was 0.4 nM. In the case of `Cc1ncnc2c1ccn2[C@@H]1O[C@@H]2[C@H](Cc3cnc4cc(F)c(N)nc4c3)CC[C@]2(O)[C@H]1O` [Example 25, (2R,3R,3aS,6S,6aR)-6-((6-amino-7-fluoro-1,5-naphthyridin-3-yl)methyl)-2-(4-methyl-7H-pyrrolo[2,3-d]pyrimidin-7-yl)hexahydro-3aH-cyclopenta[b]furan-3,3a-diol, 3HCl], the EC50 is reported as 11 nM. `Nc1nc2c(F)c(C[C@@H]3CC[C@@]4(O)[C@@H]3O[C@@H](n3ccc5c(N)ncnc53)[C@@H]4O)ccc2cc1Cl` [Example 26, (2R,3R,3aS,6S,6aR)-6-((2-amino-3-chloro-8-fluoroquinolin-7-yl)methyl)-2-(4-amino-7H-pyrrolo[2,3-d]pyrimidin-7-yl)hexahydro-3aH-cyclopenta[b]furan-3,3a-diol] gave an EC50 of 1.1 nM. With `Nc1nc2cc(C[C@@H]3CC[C@@]4(O)[C@@H]3O[C@@H](n3ccc5c(N)ncnc53)[C@@H]4O)c(F)cc2cc1F` [Example 27, (2R,3R,3aS,6S,6aR)-6-[(2-amino-3,6-difluoroquinolin-7-yl)methyl]-2-(4-amino-7H-pyrrolo[2,3-d]pyrimidin-7-yl)hexahydro-3aH-cyclopenta[b]furan-3,3a-diol] the EC50 was 0.4 nM. In the case of `Nc1nc2nc(C[C@@H]3CC[C@@]4(O)[C@@H]3O[C@@H](n3ccc5c(N)ncnc53)[C@@H]4O)ccc2cc1Cl` [Example 28, (2R,3R,3aS,6S,6aR)-6-((7-amino-6-chloro-1,8-naphthyridin-2-yl)methyl)-2-(4-amino-7H-pyrrolo[2,3-d]pyrimidin-7-yl)hexahydro-3aH-cyclopenta[b]furan-3,3a-diol trihydrochloride], the EC50 is reported as 0.8 nM. `Nc1nc2cc(C[C@@H]3CC[C@@]4(O)[C@@H]3O[C@@H](n3ccc5c(N)ncnc53)[C@@H]4O)cc(F)c2cc1F` [Example 29, (2R,3R,3aS,6S,6aR)-6-[(2-amino-3,5-difluoroquinolin-7-yl)methyl]-2-(4-amino-7H-pyrrolo[2,3-d]pyrimidin-7-yl)hexahydro-3aH-cyclopenta[b]furan-3,3a-diol] gave an EC50 of 0.3 nM. Molecule `Nc1nc2cc(C[C@@H]3CC[C@@]4(O)[C@@H]3C[C@@H](n3cc(F)c5c(N)ncnc53)[C@@H]4O)cc(F)c2cc1F` [Example 30, (1S,2R,3aR,4S,6aR)-4-((2-amino-3,5-difluoroquinolin-7-yl)methyl)-2-(4-amino-5-fluoro-7H-pyrrolo[2,3-d]pyrimidin-7-yl)hexahydropentalene-1,6a(1H)-diol] has an EC50 of 0.7 nM. `Cc1nc(N)c2ccn([C@@H]3C[C@@H]4[C@H](Cc5ccc6cc(Cl)c(N)nc6c5)CC[C@]4(O)[C@H]3O)c2n1` [Example 31, (1S,2R,3aR,4S,6aR)-2-(4-amino-2-methyl-7H-pyrrolo[2,3-d]pyrimidin-7-yl)-4-((2-amino-3-chloroquinolin-7-yl)methyl)hexahydropentalene-1,6a(1H)-diol 2,2,2-trifluoroacetate] gave an EC50 of 0.4 nM. `Cc1nc(N)c2ccn([C@@H]3C[C@@H]4[C@H](Cc5ccc6cc(F)c(N)nc6c5)CC[C@]4(O)[C@H]3O)c2n1` [Example 32, (1S,2R,3aR,4S,6aR)-2-(4-amino-2-methyl-7H-pyrrolo[2,3-d]pyrimidin-7-yl)-4-((2-amino-3-fluoroquinolin-7-yl)methyl)hexahydropentalene-1,6a(1H)-diol 2,2,2-trifluoroacetate] was tested, and the EC50 was 0.4 nM. Molecule `Nc1nc2cc(C[C@@H]3CC[C@@]4(O)[C@@H]3C[C@@H](n3cc(F)c5c(N)ncnc53)[C@@H]4O)ccc2cc1F` [Example 33, (1S,2R,3aR,4S,6aR)-4-((2-amino-3-fluoroquinolin-7-yl)methyl)-2-(4-amino-5-fluoro-7H-pyrrolo[2,3-d]pyrimidin-7-yl)hexahydropentalene-1,6a(1H)-diol] has an EC50 of 0.6 nM. Molecule `Nc1nc2cc(C[C@@H]3CC[C@@]4(O)[C@@H]3C[C@@H](n3cc(F)c5c(N)ncnc53)[C@@H]4O)ccc2cc1Cl` [Example 34, (1S,2R,3aR,4S,6aR)-4-((2-amino-3-chloroquinolin-7-yl)methyl)-2-(4-amino-5-fluoro-7H-pyrrolo[2,3-d]pyrimidin-7-yl)hexahydropentalene-1,6a(1H)-diol] has an EC50 of 0.3 nM. `Cc1cn([C@@H]2C[C@@H]3[C@H](Cc4cc(F)c5cc(F)c(N)nc5c4)CC[C@]3(O)[C@H]2O)c2ncnc(N)c12` [Example 35, (1S,2R,3aR,4S,6aR)-4-[(2-amino-3,5-difluoroquinolin-7-yl)methyl]-2-(4-amino-5-methyl-7H-pyrrolo[2,3-d]pyrimidin-7-yl)hexahydropentalene-1,6a(1H)-diol] showed an EC50 of 0.5 nM. In the case of `Cc1cn([C@@H]2C[C@@H]3[C@H](Cc4cc(F)c5cc(Cl)c(N)nc5c4)CC[C@]3(O)[C@H]2O)c2ncnc(N)c12` [Example 36, (1S,2R,3aR,4S,6aR)-4-[(2-amino-3-chloro-5-fluoroquinolin-7-yl)methyl]-2-(4-amino-5-methyl-7H-pyrrolo[2,3-d]pyrimidin-7-yl)hexahydropentalene-1,6a(1H)-diol], the EC50 is reported as 0.5 nM. For `Cc1nc(N)c2ccn([C@@H]3C[C@@H]4[C@H](Cc5ccc6cc(Br)c(N)nc6c5)CC[C@]4(O)[C@H]3O)c2n1` [Example 37, (1S,2R,3aR,4S,6aR)-2-(4-amino-2-methyl-7H-pyrrolo[2,3-d]pyrimidin-7-yl)-4-((2-amino-3-bromoquinolin-7-yl)methyl)hexahydropentalene-1,6a(1H)-diol], the EC50 was 0.3 nM.

Same assay, conditions: second EC50 of 7 parameters biphasic model; 1.0 nM PRMT5-MEP50, 75 nM biotinylated peptide, 15 μM SAM; read-out: Enzyme Methylation Assay (EC50 2)
Molecule `Cc1ncnc2c1ccn2[C@@H]1O[C@@H]2[C@H](Cc3cnc4cc(F)c(N)nc4c3)CC[C@]2(O)[C@H]1O` [Example 25, (2R,3R,3aS,6S,6aR)-6-((6-amino-7-fluoro-1,5-naphthyridin-3-yl)methyl)-2-(4-methyl-7H-pyrrolo[2,3-d]pyrimidin-7-yl)hexahydro-3aH-cyclopenta[b]furan-3,3a-diol, 3HCl] has an EC50 of 8910 nM.
